Test results published in article PMC6704710, “Preclinical evaluation of 3D185, a novel potent inhibitor of FGFR1/2/3 and CSF-1R, in FGFR-dependent and macrophage-dominant cancer models” (Journal of Experimental & Clinical Cancer Research : CR, 2019).

How the values were obtained:
Assay in all cases: Eurofins kinase panel
Format in all cases: biochemical
Conditions in all cases: read-out: Inhibition rate (%)
MRCKα(h) = biological target: T1, MRCKα(h) (Homo sapiens, UniProt Q5VT25)
T1 construct: purchased Eurofins (KinaseProfiler)
T1 sequence (Q5VT25 whole entry): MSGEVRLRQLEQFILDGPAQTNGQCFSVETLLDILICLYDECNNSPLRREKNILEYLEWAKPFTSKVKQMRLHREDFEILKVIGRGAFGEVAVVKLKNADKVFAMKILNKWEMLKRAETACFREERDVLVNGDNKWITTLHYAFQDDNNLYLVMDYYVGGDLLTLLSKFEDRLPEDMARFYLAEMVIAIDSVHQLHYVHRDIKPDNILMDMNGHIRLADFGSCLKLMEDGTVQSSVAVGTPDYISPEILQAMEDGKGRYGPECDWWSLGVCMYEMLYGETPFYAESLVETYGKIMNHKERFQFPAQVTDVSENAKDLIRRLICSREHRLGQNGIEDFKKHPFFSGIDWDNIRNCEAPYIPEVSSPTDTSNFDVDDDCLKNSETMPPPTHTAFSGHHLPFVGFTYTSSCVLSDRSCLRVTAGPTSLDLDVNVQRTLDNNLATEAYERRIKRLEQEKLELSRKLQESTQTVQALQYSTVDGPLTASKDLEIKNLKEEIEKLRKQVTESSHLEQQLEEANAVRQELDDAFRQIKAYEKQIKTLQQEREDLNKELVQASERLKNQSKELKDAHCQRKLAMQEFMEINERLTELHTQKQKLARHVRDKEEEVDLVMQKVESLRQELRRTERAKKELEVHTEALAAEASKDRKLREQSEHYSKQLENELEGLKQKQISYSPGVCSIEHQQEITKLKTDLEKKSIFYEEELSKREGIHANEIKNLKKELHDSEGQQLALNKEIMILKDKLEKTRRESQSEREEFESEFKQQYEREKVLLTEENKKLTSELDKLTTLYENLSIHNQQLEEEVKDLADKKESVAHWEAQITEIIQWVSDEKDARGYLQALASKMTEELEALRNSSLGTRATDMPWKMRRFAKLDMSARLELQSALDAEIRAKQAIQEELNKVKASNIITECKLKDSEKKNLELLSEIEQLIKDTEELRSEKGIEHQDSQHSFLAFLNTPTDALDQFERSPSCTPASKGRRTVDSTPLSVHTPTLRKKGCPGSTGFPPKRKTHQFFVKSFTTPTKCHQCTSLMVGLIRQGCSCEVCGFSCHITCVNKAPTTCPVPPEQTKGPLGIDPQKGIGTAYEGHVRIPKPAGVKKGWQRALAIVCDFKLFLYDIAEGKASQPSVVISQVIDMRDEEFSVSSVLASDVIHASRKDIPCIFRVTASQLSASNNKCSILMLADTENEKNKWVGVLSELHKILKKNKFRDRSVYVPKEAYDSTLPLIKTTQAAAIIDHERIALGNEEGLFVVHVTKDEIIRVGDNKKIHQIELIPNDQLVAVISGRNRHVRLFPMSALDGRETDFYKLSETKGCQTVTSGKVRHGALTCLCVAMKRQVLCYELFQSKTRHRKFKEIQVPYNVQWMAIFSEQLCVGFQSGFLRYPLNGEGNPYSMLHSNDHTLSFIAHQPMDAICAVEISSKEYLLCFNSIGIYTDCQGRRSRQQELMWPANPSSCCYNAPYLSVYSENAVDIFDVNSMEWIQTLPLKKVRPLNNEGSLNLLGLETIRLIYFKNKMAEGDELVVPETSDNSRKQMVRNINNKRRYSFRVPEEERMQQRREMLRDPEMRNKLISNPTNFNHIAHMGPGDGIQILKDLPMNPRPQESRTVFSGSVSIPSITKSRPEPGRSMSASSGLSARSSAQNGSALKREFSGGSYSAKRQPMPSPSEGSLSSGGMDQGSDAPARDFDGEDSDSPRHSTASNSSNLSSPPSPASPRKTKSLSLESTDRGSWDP

NIM1(h) = biological target: T2, NIM1(h) (Homo sapiens, UniProt Q8IY84)
T2 construct: purchased Eurofins (KinaseProfiler)
T2 sequence (Q8IY84 whole entry): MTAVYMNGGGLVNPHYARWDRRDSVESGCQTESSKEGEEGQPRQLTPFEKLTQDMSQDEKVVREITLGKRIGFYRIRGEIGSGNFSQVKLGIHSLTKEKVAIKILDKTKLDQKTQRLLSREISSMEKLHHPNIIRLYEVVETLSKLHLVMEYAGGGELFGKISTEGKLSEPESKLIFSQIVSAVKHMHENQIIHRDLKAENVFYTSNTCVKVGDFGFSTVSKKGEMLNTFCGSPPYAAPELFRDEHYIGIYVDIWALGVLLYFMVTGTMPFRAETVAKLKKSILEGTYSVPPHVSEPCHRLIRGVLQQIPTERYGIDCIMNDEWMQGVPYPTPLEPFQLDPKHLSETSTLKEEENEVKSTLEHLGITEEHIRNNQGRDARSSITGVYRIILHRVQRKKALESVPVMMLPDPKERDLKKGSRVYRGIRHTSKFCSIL

MYO3B(h) = biological target: T3, MYO3B(h) (Homo sapiens, UniProt Q8WXR4)
T3 construct: purchased Eurofins (KinaseProfiler)
T3 sequence (Q8WXR4 1-1341): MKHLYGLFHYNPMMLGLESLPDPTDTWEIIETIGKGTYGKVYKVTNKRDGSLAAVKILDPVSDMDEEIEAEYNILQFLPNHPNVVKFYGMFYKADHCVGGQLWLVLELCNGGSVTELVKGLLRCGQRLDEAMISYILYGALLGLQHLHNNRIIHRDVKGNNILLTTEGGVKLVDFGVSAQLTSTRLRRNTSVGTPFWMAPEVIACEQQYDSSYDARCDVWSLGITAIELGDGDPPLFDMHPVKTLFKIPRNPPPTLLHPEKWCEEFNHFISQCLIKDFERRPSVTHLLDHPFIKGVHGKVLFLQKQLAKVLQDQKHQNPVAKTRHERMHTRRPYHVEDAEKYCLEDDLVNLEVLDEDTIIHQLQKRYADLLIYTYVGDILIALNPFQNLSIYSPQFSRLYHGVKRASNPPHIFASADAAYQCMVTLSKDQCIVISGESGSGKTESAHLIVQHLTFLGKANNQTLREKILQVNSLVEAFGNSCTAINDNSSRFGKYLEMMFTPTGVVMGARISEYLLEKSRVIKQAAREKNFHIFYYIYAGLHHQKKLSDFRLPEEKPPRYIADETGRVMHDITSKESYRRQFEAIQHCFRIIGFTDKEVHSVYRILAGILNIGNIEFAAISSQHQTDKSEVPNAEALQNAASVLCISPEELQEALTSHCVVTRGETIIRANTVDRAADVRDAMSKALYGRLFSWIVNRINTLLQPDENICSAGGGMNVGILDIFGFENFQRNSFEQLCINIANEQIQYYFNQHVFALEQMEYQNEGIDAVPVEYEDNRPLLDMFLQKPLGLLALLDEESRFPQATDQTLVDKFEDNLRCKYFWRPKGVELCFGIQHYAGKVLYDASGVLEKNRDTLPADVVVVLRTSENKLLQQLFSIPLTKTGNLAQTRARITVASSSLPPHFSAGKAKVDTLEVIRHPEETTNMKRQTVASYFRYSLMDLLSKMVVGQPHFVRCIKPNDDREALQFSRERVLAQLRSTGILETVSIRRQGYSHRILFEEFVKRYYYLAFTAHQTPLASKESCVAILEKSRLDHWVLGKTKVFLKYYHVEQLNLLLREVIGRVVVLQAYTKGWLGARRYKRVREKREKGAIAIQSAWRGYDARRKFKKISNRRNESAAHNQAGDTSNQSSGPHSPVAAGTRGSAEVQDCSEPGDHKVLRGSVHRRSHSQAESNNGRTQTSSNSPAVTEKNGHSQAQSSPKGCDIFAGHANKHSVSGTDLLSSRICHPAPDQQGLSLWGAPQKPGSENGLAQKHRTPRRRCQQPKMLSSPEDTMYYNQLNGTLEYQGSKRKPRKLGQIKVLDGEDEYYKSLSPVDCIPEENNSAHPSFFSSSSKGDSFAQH

CHK2(I157T)(h) = biological target: T4, CHK2(I157T)(h) (Homo sapiens, UniProt O96017, I157T)
T4 construct: purchased Eurofins (KinaseProfiler)
T4 sequence (O96017 whole entry I157T): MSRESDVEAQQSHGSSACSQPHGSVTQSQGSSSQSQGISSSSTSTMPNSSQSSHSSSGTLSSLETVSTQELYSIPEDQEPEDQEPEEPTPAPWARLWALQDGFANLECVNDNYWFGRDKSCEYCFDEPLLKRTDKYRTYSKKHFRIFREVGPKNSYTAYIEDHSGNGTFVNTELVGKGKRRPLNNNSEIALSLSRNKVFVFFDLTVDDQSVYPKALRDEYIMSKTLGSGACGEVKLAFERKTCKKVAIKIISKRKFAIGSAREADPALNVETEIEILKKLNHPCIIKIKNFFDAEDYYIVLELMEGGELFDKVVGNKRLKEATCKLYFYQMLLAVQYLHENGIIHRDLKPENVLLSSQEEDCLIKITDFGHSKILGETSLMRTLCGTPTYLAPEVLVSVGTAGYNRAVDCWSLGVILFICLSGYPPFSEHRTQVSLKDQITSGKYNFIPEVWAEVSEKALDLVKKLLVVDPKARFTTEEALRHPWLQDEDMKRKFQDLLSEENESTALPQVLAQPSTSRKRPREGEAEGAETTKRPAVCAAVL

EGFR(L858R)(h) = biological target: T5, EGFR(L858R)(h) (Homo sapiens, UniProt P00533, L858R)
T5 construct: purchased Eurofins (KinaseProfiler)
T5 sequence (P00533 25-1210 L858R): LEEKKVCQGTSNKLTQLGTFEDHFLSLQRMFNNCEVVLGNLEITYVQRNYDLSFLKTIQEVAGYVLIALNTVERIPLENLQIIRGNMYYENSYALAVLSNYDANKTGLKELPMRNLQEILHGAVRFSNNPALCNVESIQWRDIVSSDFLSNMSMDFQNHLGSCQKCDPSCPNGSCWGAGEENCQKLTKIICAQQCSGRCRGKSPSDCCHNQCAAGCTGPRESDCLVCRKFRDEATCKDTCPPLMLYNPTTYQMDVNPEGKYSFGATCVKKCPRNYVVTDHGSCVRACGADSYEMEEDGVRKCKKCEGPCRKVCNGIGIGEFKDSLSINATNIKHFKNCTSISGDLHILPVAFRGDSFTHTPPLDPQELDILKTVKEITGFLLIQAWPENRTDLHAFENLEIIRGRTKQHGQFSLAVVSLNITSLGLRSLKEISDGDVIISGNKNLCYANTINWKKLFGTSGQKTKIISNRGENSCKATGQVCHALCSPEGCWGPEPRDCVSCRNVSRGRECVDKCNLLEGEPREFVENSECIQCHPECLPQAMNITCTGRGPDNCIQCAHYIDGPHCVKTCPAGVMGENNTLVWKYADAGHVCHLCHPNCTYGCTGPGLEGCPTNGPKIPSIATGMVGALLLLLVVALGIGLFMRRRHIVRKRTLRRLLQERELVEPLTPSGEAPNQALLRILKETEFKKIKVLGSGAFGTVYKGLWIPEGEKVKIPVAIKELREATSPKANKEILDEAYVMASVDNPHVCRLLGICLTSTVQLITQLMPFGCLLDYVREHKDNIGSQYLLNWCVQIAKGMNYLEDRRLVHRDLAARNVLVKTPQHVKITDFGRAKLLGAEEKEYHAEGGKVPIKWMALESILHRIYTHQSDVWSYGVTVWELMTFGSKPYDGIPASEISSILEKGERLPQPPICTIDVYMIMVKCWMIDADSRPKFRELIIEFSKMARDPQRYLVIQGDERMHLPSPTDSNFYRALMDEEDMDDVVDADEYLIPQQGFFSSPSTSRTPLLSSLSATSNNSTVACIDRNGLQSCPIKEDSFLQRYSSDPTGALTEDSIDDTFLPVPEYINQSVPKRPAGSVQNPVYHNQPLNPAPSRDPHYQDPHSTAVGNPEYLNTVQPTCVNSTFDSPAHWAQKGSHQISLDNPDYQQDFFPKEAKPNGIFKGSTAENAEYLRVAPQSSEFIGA

PKCε(h) = biological target: T6, PKCε(h) (Homo sapiens, UniProt Q02156)
T6 construct: purchased Eurofins (KinaseProfiler)
T6 sequence (Q02156 1-737): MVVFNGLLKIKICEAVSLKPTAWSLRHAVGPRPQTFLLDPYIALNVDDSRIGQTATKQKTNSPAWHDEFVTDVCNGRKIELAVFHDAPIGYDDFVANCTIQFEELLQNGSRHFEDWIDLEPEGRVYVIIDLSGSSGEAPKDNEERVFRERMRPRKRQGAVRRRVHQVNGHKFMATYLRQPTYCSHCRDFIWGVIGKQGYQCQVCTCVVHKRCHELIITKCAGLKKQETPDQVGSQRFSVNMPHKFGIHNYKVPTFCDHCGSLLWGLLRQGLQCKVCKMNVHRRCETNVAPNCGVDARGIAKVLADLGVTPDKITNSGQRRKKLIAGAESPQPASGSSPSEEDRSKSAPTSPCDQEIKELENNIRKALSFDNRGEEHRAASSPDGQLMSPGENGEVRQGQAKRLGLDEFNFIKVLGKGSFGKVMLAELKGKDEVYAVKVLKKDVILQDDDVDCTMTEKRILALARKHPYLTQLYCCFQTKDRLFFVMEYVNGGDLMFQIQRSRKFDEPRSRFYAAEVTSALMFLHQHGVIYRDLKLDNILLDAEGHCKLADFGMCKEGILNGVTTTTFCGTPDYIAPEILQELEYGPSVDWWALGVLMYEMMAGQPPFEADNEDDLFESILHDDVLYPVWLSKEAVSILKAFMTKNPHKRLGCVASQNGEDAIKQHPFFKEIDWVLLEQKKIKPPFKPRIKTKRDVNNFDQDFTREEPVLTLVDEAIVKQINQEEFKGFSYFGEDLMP

`COc1cc(OC)c(Cl)c(-c2ccc3c(NC(=O)c4ccc(N5CCNC(C)(C)C5)cc4)n[nH]c3n2)c1Cl` [3D185] showed an inhibition at 0.01 µM (MRCKα(h); 10 nM) of 12%, an inhibition at 0.1 µM (MRCKα(h); 100 nM) of 16% and an inhibition at 1 µM (MRCKα(h); 1000 nM) of 14%. It also gave an inhibition at 0.01 µM (NIM1(h); 10 nM) of -9%, an inhibition at 0.1 µM (NIM1(h); 100 nM) of 0% and an inhibition at 1 µM (NIM1(h); 1000 nM) of 0%. For the same molecule, the inhibition at 0.01 µM (MYO3B(h); 10 nM) was -4%, the inhibition at 0.1 µM (MYO3B(h); 100 nM) was 0% and the inhibition at 1 µM (MYO3B(h); 1000 nM) was 7%. For the same molecule, the inhibition at 0.01 µM (CHK2(I157T)(h); 10 nM) was -6%, the inhibition at 0.1 µM (CHK2(I157T)(h); 100 nM) was -5% and the inhibition at 1 µM (CHK2(I157T)(h); 1000 nM) was -1%. It also gave an inhibition at 0.01 µM (EGFR(L858R)(h); 10 nM) of 1%, an inhibition at 0.1 µM (EGFR(L858R)(h); 100 nM) of 9% and an inhibition at 1 µM (EGFR(L858R)(h); 1000 nM) of 30%. It also gave an inhibition at 0.01 µM (PKCε(h); 10 nM) of -4%, an inhibition at 0.1 µM (PKCε(h); 100 nM) of -10% and an inhibition at 1 µM (PKCε(h); 1000 nM) of -6%.
